Source: PMC9088825, “N ^α-arylsulfonyl histamines as selective β-glucosidase inhibitors” (RSC Advances, 2018)
Read-outs that look alike come from different tables or passages of the source.

Legend:
β-Glc (from almonds) [1] = settings: cited from earlier work
β-Glc (from almonds) [2] = assay: β-Glc microplate assay (hydrolysis of p-nitrophenyl-β-D-glucopyranoside); format: biochemical; settings: for IC50: microplate assay, β-PNPG substrate, pH 7, 37 °C, read-out: IC50 (β-Glc inhibition)
Procedure: The final volume in well was 270 μL. The enzymatic reaction was initiated by addition of β-PNPG (1.63 mM end concentration in well). […] For IC50 determination, ten serial dilutions of the compounds were prepared in DMSO, following equally spaced points in […] logarithm scale, starting at 16.2 mM and finishing at 1.7 μM. IC50 was calculated using Prism V5.01 (GraphPad Software Inc., La Jolla, CA, USA) requesting the software a non-linear regression curve fit for a log[Inhibitor] vs. normalized answer model with variable slope.

β-Glc [3] = settings: cited from earlier work
β-Glc [4] = assay: Kinetic experiments (Lineweaver–Burk, Ki); format: biochemical, almonds
Procedure: Microplate assay was carried on varying substrate concentration between 0.022 and 7.2 mM; as well as the inhibitor concentration was varied between 0.239 and 0.0061 mM. Initial velocities vs. [S] curves were obtained with Michaelis–Menten equation adjustment. After that, Lineweaver–Burk linearization plot and the secondary linearization of Slopes vs. [I] reveled type of inhibition and Ki value respectively. All the data acquired was treated through Prism V5.01 (GraphPad Software Inc.).

xanthine oxidase (XO) = xanthine oxidase (XO) (Bos taurus, UniProt P80457); assay: XO microplate assay (uric acid formation); format: biochemical, bovine; settings: tested at 3 μM
Procedure: Following the method previously reported by Chu,[45] the formation of uric acid was continuously measured in 96-well microplate. Each well was filled in triplicates with: of 10 μL test compound in DMSO (0.11 μM end concentration in well) and XO (bovine) in 0.2 M buffer phosphate, pH 7.5 (2.81 μU mL^−1, end concentration in well). […] The final volume in well was 270 μL. The enzymatic reaction was initiated by addition of the xanthine substrate (0.04 mM, end concentration in well). The plate was shaken for 2 s and the increase in absorbance at 295 nm was monitored at 30 °C for 20 min.

[5] = target: acetyl cholinesterase (AChE) (Electrophorus electricus, UniProt O42275); format: biochemical, electric eel; settings: tested at 1.5 μM
Procedure: AChE activity measurement was carried on based on Ellman's method.[46] […] The plate was shaken for 2 s and the increase in absorbance at 405 nm was monitored at 37 °C for 15 min.

β-Glc [6] = assay: Jump dilution assay; format: biochemical, almonds
Procedure: After 30 minutes of incubation, the mixture was diluted 100-fold and mixed with the substrate and α-CD to start the reaction. The progress curve of this sample was measured and compared to a sample of enzyme incubated and diluted in the absence of inhibitor. Each incubation and dilution were prepared and measured in triplicate. The percentage of activity recovery was obtained using Prism V5.01 (GraphPad Software Inc.).

β-galactosidase (β-Gal) [7] = target: T1, β-galactosidase (β-Gal) (Kluyveromyces lactis, UniProt P00723); assay: β-Gal microplate assay; format: biochemical; settings: up to 3.500 mM
Procedure: Similar to the method applied in β-Glc assay, the hydrolysis of o-nitrophenyl-β-O-D-galactopyranoside (β-ONPG) was continuously measured in 96-well microplate. Wells were filled in triplicate with β-Gal (Kluyveromyces lactis) in 50 mM buffer phosphate, pH 7 (7.20 μU mL^−1 final concentration in well) and 10 μL of test compound in dimethylsulfoxide (DMSO) solution (100 μM or 500 μM end concentration in well). The final volume in well was 270 μL. The enzymatic reaction was initiated by addition of β-ONPG (3.23 mM end concentration in well). The plate was shaken for 2 s and the increase in absorbance at 405 nm was monitored at 37 °C for 10 min. For IC50 determination, eighteen serial dilutions of the compounds were prepared in DMSO, following equally spaced points in neperian logarithm scale, starting at 94.50 mM and finishing at 1.44 μM. IC50 was calculated using Prism V5.01 (GraphPad Software Inc., La Jolla, CA, USA) requesting the software a non-linear regression curve fit for a log[Inhibitor] vs. normalized answer model with variable slope.

β-galactosidase (β-Gal) [8] = target: T1, β-galactosidase (β-Gal); design: method as in earlier work; settings: ref 1 (Kato et al., J. Med. Chem., 2005, 48, 2036-2044); read-out: IC50 (β-Gal), reference inhibitor; cited from earlier work
[9] = binds the active site of β-Glc from almonds, read-out: Ki (β-Glc from almonds)

T1 sequence (P00723 whole entry): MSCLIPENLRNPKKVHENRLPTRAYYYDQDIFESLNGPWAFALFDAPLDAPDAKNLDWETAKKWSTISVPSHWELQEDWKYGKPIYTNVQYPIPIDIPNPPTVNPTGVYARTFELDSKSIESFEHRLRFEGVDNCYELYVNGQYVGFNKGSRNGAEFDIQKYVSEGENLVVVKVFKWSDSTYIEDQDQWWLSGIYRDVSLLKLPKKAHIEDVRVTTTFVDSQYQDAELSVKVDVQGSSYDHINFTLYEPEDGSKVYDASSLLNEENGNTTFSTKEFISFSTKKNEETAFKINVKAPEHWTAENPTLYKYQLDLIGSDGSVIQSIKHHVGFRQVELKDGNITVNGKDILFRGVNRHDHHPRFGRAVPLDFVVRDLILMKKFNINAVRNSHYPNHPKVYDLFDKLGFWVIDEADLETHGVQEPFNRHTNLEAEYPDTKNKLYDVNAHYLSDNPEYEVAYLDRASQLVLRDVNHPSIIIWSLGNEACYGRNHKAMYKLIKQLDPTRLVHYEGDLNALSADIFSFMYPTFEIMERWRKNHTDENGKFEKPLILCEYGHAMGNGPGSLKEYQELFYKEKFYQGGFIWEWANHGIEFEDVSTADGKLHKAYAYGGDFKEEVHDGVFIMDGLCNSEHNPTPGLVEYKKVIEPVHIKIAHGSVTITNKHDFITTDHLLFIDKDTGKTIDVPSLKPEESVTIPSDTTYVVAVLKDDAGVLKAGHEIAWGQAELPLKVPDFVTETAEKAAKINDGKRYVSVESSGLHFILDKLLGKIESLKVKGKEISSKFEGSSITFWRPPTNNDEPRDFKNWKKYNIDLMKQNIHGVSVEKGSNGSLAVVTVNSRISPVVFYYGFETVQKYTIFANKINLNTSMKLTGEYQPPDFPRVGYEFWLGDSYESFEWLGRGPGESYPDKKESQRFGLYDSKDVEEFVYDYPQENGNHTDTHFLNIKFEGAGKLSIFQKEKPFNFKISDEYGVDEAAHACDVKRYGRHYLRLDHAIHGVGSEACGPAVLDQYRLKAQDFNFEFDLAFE
acetyl cholinesterase (AChE), sequence (O42275 24-633): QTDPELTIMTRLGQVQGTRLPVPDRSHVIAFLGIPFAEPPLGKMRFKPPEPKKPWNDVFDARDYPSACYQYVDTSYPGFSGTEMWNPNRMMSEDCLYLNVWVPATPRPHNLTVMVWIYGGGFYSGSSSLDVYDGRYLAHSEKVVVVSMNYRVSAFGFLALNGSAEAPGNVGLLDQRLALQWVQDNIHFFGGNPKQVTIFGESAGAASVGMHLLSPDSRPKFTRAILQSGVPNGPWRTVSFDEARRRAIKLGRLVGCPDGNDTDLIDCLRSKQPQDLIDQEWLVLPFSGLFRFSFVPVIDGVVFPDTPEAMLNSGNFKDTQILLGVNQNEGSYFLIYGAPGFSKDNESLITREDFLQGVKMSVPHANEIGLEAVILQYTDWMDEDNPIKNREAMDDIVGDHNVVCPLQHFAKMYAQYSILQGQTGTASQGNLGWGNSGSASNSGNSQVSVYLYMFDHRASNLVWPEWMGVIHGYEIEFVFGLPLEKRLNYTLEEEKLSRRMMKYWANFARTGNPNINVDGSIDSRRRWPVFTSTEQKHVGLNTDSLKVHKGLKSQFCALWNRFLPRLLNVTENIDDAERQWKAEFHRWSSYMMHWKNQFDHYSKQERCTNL
xanthine oxidase (XO), sequence (P80457 whole entry): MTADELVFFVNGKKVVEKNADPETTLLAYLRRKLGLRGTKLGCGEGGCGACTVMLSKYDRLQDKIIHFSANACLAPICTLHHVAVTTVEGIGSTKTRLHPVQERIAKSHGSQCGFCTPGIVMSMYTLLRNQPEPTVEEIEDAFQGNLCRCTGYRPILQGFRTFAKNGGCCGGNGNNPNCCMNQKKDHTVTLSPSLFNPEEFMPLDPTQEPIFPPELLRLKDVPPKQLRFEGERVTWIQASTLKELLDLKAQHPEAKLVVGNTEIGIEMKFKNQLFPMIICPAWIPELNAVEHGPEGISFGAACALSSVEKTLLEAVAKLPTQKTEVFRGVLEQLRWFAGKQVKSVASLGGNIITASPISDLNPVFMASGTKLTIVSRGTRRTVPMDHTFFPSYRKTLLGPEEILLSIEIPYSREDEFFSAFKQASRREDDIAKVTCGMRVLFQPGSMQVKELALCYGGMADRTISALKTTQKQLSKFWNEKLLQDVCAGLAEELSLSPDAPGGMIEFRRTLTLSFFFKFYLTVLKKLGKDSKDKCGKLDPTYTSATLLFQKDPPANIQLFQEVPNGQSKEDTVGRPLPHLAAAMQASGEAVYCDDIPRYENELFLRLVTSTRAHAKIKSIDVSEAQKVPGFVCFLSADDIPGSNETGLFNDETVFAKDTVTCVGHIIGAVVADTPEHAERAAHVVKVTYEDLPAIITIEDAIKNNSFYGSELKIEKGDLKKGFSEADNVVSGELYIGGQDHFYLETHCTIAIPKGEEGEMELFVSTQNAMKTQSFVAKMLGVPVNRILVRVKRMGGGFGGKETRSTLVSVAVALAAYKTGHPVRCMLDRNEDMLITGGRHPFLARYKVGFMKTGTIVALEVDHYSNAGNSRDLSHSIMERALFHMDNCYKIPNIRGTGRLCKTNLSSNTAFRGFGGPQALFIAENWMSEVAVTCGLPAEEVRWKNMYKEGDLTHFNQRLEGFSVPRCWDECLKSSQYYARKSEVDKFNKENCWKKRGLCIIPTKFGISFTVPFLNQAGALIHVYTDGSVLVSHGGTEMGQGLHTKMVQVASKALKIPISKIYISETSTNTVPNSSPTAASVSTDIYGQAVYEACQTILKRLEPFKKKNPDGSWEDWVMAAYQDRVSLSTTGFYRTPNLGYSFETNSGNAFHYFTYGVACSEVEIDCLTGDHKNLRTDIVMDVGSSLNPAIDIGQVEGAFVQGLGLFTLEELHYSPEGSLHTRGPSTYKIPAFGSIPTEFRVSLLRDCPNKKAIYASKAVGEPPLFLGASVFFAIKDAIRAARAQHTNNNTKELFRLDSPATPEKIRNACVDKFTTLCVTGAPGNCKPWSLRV

In the case of `OC[C@H]1NC[C@H](O)[C@@H](O)[C@@H]1O` [1-DNJ, 1-deoxynojirimycin, reference compound], the IC50 (β-Glc (from almonds) [1]; read-out: IC50 (β-Glc inhibition), reported value for reference inhibitor) is listed as 81 µM, the IC50 (β-Glc (from almonds) [2]) is listed as 65.2 ± 1.04 µM and the Ki (β-Glc [3]; measured in similar conditions, read-out: Ki (β-Glc), reference compound) is listed as 47 µM.

With `O=S(=O)(NCCc1c[nH]cn1)c1ccccc1` [I-a, N ^α-benzenesulfonyl histamine] the IC50 (β-Glc (from almonds) [2]) was 197 µM.

In the case of `Cc1ccc(S(=O)(=O)NCCc2c[nH]cn2)cc1` [I-b, N ^α-p-toluenesulfonyl histamine], the IC50 (β-Glc (from almonds) [2]) is reported as 250 ± 1.03 µM.

In the case of `O=S(=O)(NCCc1c[nH]cn1)c1ccc(F)cc1` [I-c, N ^α-4-fluorobenzenesulfonyl histamine], the “Type of inhibition (Lineweaver–Burk plot)” value (β-Glc [4]; different concentrations of p-NPG and inhibitor) is reported as “competitive”, the Ki (β-Glc [4]; kinetic assays, p-NPG substrate) is reported as 8.11 µM and the inhibition at 3 µM (xanthine oxidase (XO)) is reported as 1.31%. The IC50 (β-Glc (from almonds) [2]) was 65.1 ± 1.04 µM, the “% inhibition of β-Glc at 65 μM” value (β-Glc (from almonds) [2]; tested at 65 μM) was 49.94% and the “Inhibition of AChE” value [5] was “no inhibition”. For the same compound, the “Enzyme activity recovery (jump dilution)” value (β-Glc [6]; incubated at 10-fold IC50, 30 min, diluted 100-fold) was 91%, the “Enzyme–inhibitor interaction (reversibility)” value (β-Glc [6]; jump dilution) was “reversible” and the “Inhibition of β-Gal” value (β-galactosidase (β-Gal) [7]) was “no inhibition”.

`O=S(=O)(NCCc1c[nH]cn1)c1ccc(C(F)(F)F)cc1` [I-d, N ^α-4-(trifluoromethyl)benzenesulfonyl histamine] gave an IC50 (β-Glc (from almonds) [2]) of 79.5 ± 1.05 µM.

With `Cc1ccc(F)c(S(=O)(=O)NCCc2c[nH]cn2)c1` [I-e, N ^α-2-fluor-5-methylbenzenesulfonyl histamine] the “% of inhibition of β-Glc at 40 μM” value (β-Glc (from almonds) [2]; fixed compound concentration 40 μM) was at most 25% and the IC50 (β-Glc (from almonds) [2]) was 421.6 ± 0.94 µM.

`O=S(=O)(NCCc1c[nH]cn1)c1ccc(F)cc1Cl` [I-f, N ^α-2-Chloro-4-fluorobenzenesulfonyl histamine] showed an IC50 (β-Glc (from almonds) [2]) of 244.2 ± 1.09 µM.

In the case of `O=S(=O)(NCCc1c[nH]cn1)c1cc(F)c(F)c(F)c1` [I-g, N ^α-3,4,5-trifluorobenzenesulfonyl histamine], the IC50 (β-Glc (from almonds) [2]) is reported as 71.4 ± 1.02 µM.

For `O=S(=O)(NCCc1c[nH]cn1)c1ccc(F)cc1C(F)(F)F` [I-h, N ^α-2-(trifluoromethyl)-4-fluorobenzenesulfonyl histamine], the IC50 (β-Glc (from almonds) [2]) was 72.7 ± 1.05 µM.

With `O=S(=O)(NCCc1c[nH]cn1)c1c(F)c(F)c(F)c(F)c1F` [I-i, N ^α-pentafluorobenzenesulfonyl histamine] the IC50 (β-Glc (from almonds) [2]) was 102 ± 1.05 µM.

Work on `COc1ccc(S(=O)(=O)NCCc2c[nH]cn2)cc1F` [I-j, N ^α-3-fluoro-4-methoxybenzenesulfonyl histamine] yielded an IC50 (β-Glc (from almonds) [2]) of 95.5 ± 1.02 µM.

In the case of `O=S(=O)(NCCc1cn(S(=O)(=O)c2ccccc2)cn1)c1ccccc1` [II-a, N ^α,N^τ-di-benzenesulfonyl histamine], the IC50 (β-Glc (from almonds) [1]; read-out: IC50 (β-Glc inhibition), reported value) is given as 250 µM.

For `OC[C@H]1NC[C@H](O)[C@@H](O)[C@H]1O` [galacto-DNJ], the IC50 (β-galactosidase (β-Gal) [8]) is given as 90 µM.

In the case of `NCCc1c[nH]cn1` [histamine], the IC50 (β-Glc (from almonds) [2]) is given as over 1000 µM and the Ki (β-Glc [3]; [9]) is given as 2100 µM.

In the case of `c1c[nH]cn1` [imidazole], the Ki (β-Glc [3]; [9]) is given as 530 µM.
